EC1.5 (concentration giving 1.5-fold activation), Emax and EC1.5 data for 34 molecules are collected here from patent US9556201B2, “Bicyclic pyridines and analogs as sirtuin modulators” (GLAXOSMITHKLINE LLC, priority 2009, dated 2017).

The assay has as its target T1, SIRT1 (Homo sapiens, UniProt Q96EB6).
T1 sequence (Q96EB6 1-747): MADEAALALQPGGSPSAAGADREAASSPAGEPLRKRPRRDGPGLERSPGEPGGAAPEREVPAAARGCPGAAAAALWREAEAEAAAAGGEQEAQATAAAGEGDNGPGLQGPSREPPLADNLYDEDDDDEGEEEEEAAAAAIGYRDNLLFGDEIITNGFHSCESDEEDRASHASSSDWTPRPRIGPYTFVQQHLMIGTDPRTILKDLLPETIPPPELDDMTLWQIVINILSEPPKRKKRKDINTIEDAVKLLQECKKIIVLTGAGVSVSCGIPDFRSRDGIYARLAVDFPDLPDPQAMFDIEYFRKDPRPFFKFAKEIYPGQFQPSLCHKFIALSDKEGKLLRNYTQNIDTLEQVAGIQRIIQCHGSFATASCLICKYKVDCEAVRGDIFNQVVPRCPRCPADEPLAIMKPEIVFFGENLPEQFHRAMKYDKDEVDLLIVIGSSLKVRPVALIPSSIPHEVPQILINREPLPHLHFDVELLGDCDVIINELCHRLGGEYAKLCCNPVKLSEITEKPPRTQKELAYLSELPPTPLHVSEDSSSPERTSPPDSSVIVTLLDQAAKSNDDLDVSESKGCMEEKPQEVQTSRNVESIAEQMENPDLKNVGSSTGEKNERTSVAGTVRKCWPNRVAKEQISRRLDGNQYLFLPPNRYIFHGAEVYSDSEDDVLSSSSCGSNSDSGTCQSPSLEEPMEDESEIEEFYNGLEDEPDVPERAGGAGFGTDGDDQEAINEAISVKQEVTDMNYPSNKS
The assay can be described thus: Mass spectrometry based assay to identify modulators of SIRT1 activity (deacetylation of p53-based acetylated peptide substrate). Format: biochemical. Conditions: for Emax: 25 min, read-out: % FOLD ACT. (percent maximum fold activation); for Emax / EC1.5: SIRT1 activation. Summed up:
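Deacetylation of a modified p53 acetyl-lysine peptide ([…], 5TMR-labelled, Nle for Met) by 10 nM N-His SIRT1 with 120 μM βNAD+, pH 8, 25 min, 25 °C. Substrate and product masses measured by MS after formic acid quench; nicotinamide defines maximal inhibition.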

Consider `O=C(Nc1ccnc(N2CCC2)c1)N1CCOc2ncc(-c3cccc(C(F)(F)F)c3)nc21` [Compound 748], for which the EC1.5 (concentration giving 1.5-fold activation) was less than 1 µM and the Emax was more than 200%. Regarding `Cc1ccc(NC(=O)N2CCOc3ccc(-c4cccc(C(F)(F)F)c4)nc32)c(C)n1` [Compound 552], the Emax was more than 200% and the EC1.5 entry is listed as “B (EC1.5 1-25 μM)”. As for `O=C(Nc1ccncc1)N1CCOc2ccc(-c3ccccc3C(F)(F)F)nc21` [Compound 546], the Emax is more than 200% and the EC1.5 result is recorded as “B (EC1.5 1-25 μM)”. Regarding `Cc1ccc(-c2ccc3c(n2)N(C(=O)Nc2ccncn2)CCCO3)cn1` [Compound 681], the Emax was not above 200% and the EC1.5 result is on record as “C (EC1.5>25 μM)”.

As to `O=C(Nc1ccncc1)N1CCOc2c(N3CCNCC3)nc(-c3cccc(F)c3)nc21` [Compound 738, 2-(3-fluorophenyl)-4-(piperazin-1-yl)-N-(pyridin-4-yl)-6H-pyrimido[5,4-b][1,4]oxazine-8(7H)-carboxamide], the EC1.5 (concentration giving 1.5-fold activation) is more than 25 µM and the Emax was not above 200%.

Regarding `Cc1ncccc1NC(=O)N1CCOc2ccc(-c3cccc(C(F)(F)F)c3)nc21` [Compound 555], the Emax was not above 200% and the EC1.5 result is “B (EC1.5 1-25 μM)”. With `O=C(Nc1ncccc1F)N1CCOc2ccc(-c3cccc(C(F)(F)F)c3)nc21` [Compound 568], the Emax was more than 200% and the EC1.5 result was “B (EC1.5 1-25 μM)”. For `CN1CCN(C(=O)Nc2nccs2)c2nc(-c3cccc(C(F)(F)F)c3)ccc21` [Compound 529, 1-methyl-N-(thiazol-2-yl)-6-(3-(trifluoromethyl)phenyl)-2,3-dihydropyrido[2,3-b]pyrazine-4(1H)-carboxamide], the Emax is more than 200%. Take `O=C(Nc1ccncn1)N1CCCOc2ccc(-c3cccc(F)c3)nc21` [Compound 580]: the Emax was more than 200% and the EC1.5 entry is listed as “B (EC1.5 1-25 μM)”. With `O=C(Nc1ccccn1)N1CCCCc2ccc(-c3cccc(C(F)(F)F)c3)nc21` [Compound 812], the EC1.5 (concentration giving 1.5-fold activation) is 1 to 25 µM and the Emax is not above 200%.

As to `O=C(Nc1ncc(CN2CCCC2)s1)N1CCOc2ccc(-c3cccc(C(F)(F)F)c3)nc21` [Compound 505, N-(5-(pyrrolidin-1-ylmethyl)thiazol-2-yl)-6-(3-(trifluoromethyl)phenyl)-2H-pyrido[3,2-b][1,4]oxazine-4(3H)-carboxamide], the Emax was not above 200% and the EC1.5 result is given as “C (EC1.5>25 μM)”. As to `CC1(C)CCN(C(=O)Nc2cc(OCC(O)CO)ccn2)c2nc(-c3cccc(C(F)(F)F)c3)ccc21` (stereo not shown) [Compound 846], the EC1.5 (concentration giving 1.5-fold activation) is less than 1 µM and the Emax was more than 200%. `O=C(Nc1ccncn1)N1CCOc2c(N3CCNCC3)nc(-c3cccc(F)c3)nc21` [Compound 759]: the EC1.5 (concentration giving 1.5-fold activation) lay within 1 to 25 µM and the Emax is more than 200%. Taken in the same sequence, the figures for `O=C(Nc1ccncc1F)N1CCOc2ncc(-c3cccc(C(F)(F)F)c3)nc21` [Compound 724] were 1 to 25 µM and more than 200%. In the case of `COc1cccc(-c2ccc3c(n2)N(C(=O)Nc2ccncn2)CCO3)c1` [Compound 515], the Emax was more than 200% and the EC1.5 result is reported as “B (EC1.5 1-25 μM)”. With `CCN1C(=O)CCN(C(=O)Nc2ccc(F)cn2)c2nc(-c3cccc(Cl)c3)ccc21` [Compound 791], the EC1.5 (concentration giving 1.5-fold activation) is more than 25 µM and the Emax is not above 200%.

Take `O=C(Nc1cccc(N2CCC2)n1)N1CCOc2ccc(-c3cccc(C(F)(F)F)c3)nc21` [Compound 512, N-(6-(azetidin-1-yl)pyridin-2-yl)-6-(3-(trifluoromethyl)phenyl)-2H-pyrido[3,2-b][1,4]oxazine-4(3H)-carboxamide]: the Emax was more than 200% and the EC1.5 result is “B (EC1.5 1-25 μM)”.

As to `O=C(Nc1ccncc1F)N1CCOc2cnc(-c3cccc(C(F)(F)F)c3)nc21` [Compound 716], the EC1.5 (concentration giving 1.5-fold activation) was 1 to 25 µM and the Emax is more than 200%.

`Cc1cccc(-c2ccc3c(n2)N(C(=O)Nc2ccncn2)CCO3)c1` [Compound 517]: the Emax is more than 200% and the EC1.5 entry is recorded as “A (EC1.5<1.0 μM)”.

As for `O=C(Nc1ccnc(N2CCC2)c1)N1CCCOc2ccc(-c3cccc(F)c3)nc21` [Compound 584], the Emax is more than 200% and the EC1.5 entry is given as “B (EC1.5 1-25 μM)”.

Take `Cc1cnc(NC(=O)N2CCN(C)c3ccc(-c4cccc(C(F)(F)F)c4)nc32)s1` [Compound 530]: the Emax was not above 200% and the EC1.5 entry was “B (EC1.5 1-25 μM)”. Turning to `CC1(C)CCN(C(=O)Nc2ccccn2)c2nc(-c3cccc(Cl)c3)ccc2C1=O` [Compound 783], the EC1.5 (concentration giving 1.5-fold activation) was more than 25 µM and the Emax was not above 200%. Take `CC1(C)CN(C(=O)Nc2cccnc2)c2nc(-c3cccc(CN4CCCC4)c3)ccc2O1` [Compound 630]: the Emax is more than 200% and the EC1.5 result is given as “B (EC1.5 1-25 μM)”. Turning to `Cc1cc(NC(=O)N2CCOc3c(N4CCNCC4)nc(-c4cccc(F)c4)nc32)cc(C)n1` [Compound 752], the EC1.5 (concentration giving 1.5-fold activation) fell in the range of 1 to 25 µM and the Emax was more than 200%. `COc1nccc(NC(=O)N2CCCCc3ccc(-c4cccc(C(F)(F)F)c4)nc32)n1` [Compound 811]: the EC1.5 (concentration giving 1.5-fold activation) lay in the range of 1 to 25 µM and the Emax was not above 200%.

Take `Cc1csc(NC(=O)N2CCC(C)(C)C(=O)c3ccc(-c4cccc(Cl)c4)nc32)n1` [Compound 837]: the EC1.5 (concentration giving 1.5-fold activation) fell in the range of 1 to 25 µM and the Emax was not above 200%. In the case of `Cc1cc(-c2ccc3c(n2)N(C(=O)Nc2nc(C)cs2)CCCO3)ccn1` [Compound 676], the Emax was more than 200% and the EC1.5 result is “B (EC1.5 1-25 μM)”. On to `Cc1cc(C)nc(NC(=O)N2CCOc3ncc(-c4cccc(C(F)(F)F)c4)nc32)c1` [Compound 741], for which the EC1.5 (concentration giving 1.5-fold activation) lay in the range of 1 to 25 µM and the Emax was more than 200%. On to `O=C(Nc1ccncn1)N1CCOc2cnc(-c3cccc(C(F)(F)F)c3)nc21` [Compound 714], for which the EC1.5 (concentration giving 1.5-fold activation) was 1 to 25 µM and the Emax was not above 200%.

On to `O=C(Nc1ccncc1)N1CCOc2ncc(-c3cccc(C(F)(F)F)c3)nc21` [Compound 723], for which the EC1.5 (concentration giving 1.5-fold activation) was in the range of 1 to 25 µM and the Emax was not above 200%. `Cc1cncc(NC(=O)N2CC(C)(C)Oc3ccc(-c4cccc(CN5CCCC5)c4)nc32)c1` [Compound 629, 2,2-dimethyl-N-(5-methylpyridin-3-yl)-6-(3-(pyrrolidin-1-ylmethyl)phenyl)-2H-pyrido[3,2-b][1,4]oxazine-4(3H)-carboxamide]: the Emax was more than 200% and the EC1.5 result is reported as “B (EC1.5 1-25 μM)”. `O=C(Nc1ccncc1F)N1CCCC(F)(F)c2ccc(-c3cccc(Cl)c3)nc21` [Compound 782]: the EC1.5 (concentration giving 1.5-fold activation) is more than 25 µM and the Emax was not above 200%. The like results for `Cc1cc(NC(=O)N2CCCC(F)(F)c3ccc(-c4cccc(Cl)c4)nc32)cc(C)n1` [Compound 772] were, in that order, 1 to 25 µM and more than 200%. The like results for `CC1(C)CCN(C(=O)Nc2ccncc2)c2nc(-c3cccc(Cl)c3)ccc2C1=O` [Compound 832] were, in that order, 1 to 25 µM and not above 200%.
